The structures appear in SMILES notation. pIC50: −log10 of the molar value.

Experiment [1] concerns SKBR3 (PI3Kα-Wild Type) cell line. Nature of the experiment: HTRF phospho-AKT(S473) cell assay in SKBR3 cells. Type of experiment: cell-based, human. The conditions noted are these: Homo sapiens, SK-BR-3; HTRF phospho-AKT(S473), SKBR3 (PI3Kα-Wild Type) cells, 2 hours compound incubation, PDGF-BB stimulated. The method in brief: (§1)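 Cells plated overnight (T47D in RPMI/10% FBS/0.2 units/mL insulin; SKBR3 in McCoy's 5A/10% FBS), then given 12-point 1:3 compound series (top 5 μM T47D, 10 μM SKBR3; ≤0.5% DMSO) for 2 h at 37° C. SKBR3 stimulated with 70 ng/ml PDGF-BB for final 15 min. Lysate pAKT(S473) by HTRF; IC50 calculated.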
(In TR-FRET formats the signal depends on donor and acceptor labels being close together.)

The test system of experiment [2] is T47D (PI3Kα-H1047R) cell line. The experiment is described as follows: HTRF phospho-AKT(S473) cell assay in T47D cells. The conditions noted are these: Homo sapiens; HTRF phospho-AKT(S473), T47D (PI3Kα-H1047R) cells, 2 hours compound incubation. Type of experiment: cell-based, human. The method in brief: as §1

The term pIC50 denotes the negative decadic logarithm of the IC50, by convention in mol/L. Low readings indicate a high IC50, high ones a low IC50. On to `COc1nccc(N2C[C@@H]3C[C@H]2CN3c2nc3c([C@@H](C)Nc4ccc(Cl)nc4C(=O)NS(C)(=O)=O)cc(C)cc3c(=O)n2C)n1` [Compound 581, 6-chloro-3-(((R)-1-(2-((1S,4S)-5-(2-methoxypyrimidin-4-yl)-2,5-diazabicyclo [2.2.1]heptan-2-yl)-3,6-dimethyl-4-oxo-3,4-dihydroquinazolin-8-yl)ethyl)amino)-N-(methylsulfonyl) picolinamide], for which the figures for the pIC50 in experiment [1] and in experiment [2] were at most 5.30 and 6.30 to 6.60, respectively.
For `COc1nccc(N2C[C@H]3C[C@@H]2CN3c2nc3c([C@@H](C)Nc4ccc(Cl)nc4C(=O)NS(C)(=O)=O)cc(C)cc3c(=O)n2C)n1` [Compound 582, 6-chloro-3-(((R)-1-(2-((1R,4R)-5-(2-methoxypyrimidin-4-yl)-2,5-diazabicyclo [2.2.1]heptan-2-yl)-3,6-dimethyl-4-oxo-3,4-dihydroquinazolin-8-yl)ethyl)amino)-N-(methylsulfonyl) picolinamide], the pIC50 in experiment [1] is at most 5.30; in experiment [2], 6.30 to 6.60.
Take `Cc1cc([C@@H](C)Nc2ccc(Cl)nc2C(=O)NS(C)(=O)=O)c2nc(N3C[C@@H]4[C@H](C3)[C@H]4n3cc(Cl)cn3)n(C)c(=O)c2c1` [Compound 583, 6-chloro-3-(((R)-1-(2-((1R,5S,6S)-6-(4-chloro-1H-pyrazol-1-yl)-3-azabicyclo[3.1.0]hexan-3-yl)-3,6-dimethyl-4-oxo-3,4-dihydroquinazolin-8-yl)ethyl)amino)-N-(methylsulfonyl) picolinamide]: the pIC50 was at most 5.30 in experiment [1] and 6.30 to 6.60 in experiment [2].
Consider `CCn1c(N2C[C@@H]3[C@H](C2)[C@H]3c2cnc(C)nc2)nc2c([C@@H](C)Nc3ccc(Cl)nc3C(=O)NS(C)(=O)=O)cc(C)cc2c1=O` [Compound 584, 6-chloro-3-(((R)-1-(3-ethyl-6-methyl-2-((1R,5S,6S)-6-(2-methylpyrimidin-5-yl)-3-azabicyclo[3.1.0]hexan-3-yl)-4-oxo-3,4-dihydroquinazolin-8-yl)ethyl)amino)-N-(methylsulfonyl) picolinamide], for which the pIC50 in experiment [1] is 5.30 to 6.00; in experiment [2], over 6.60.
On to `Cc1cc([C@@H](C)Nc2ccc(Cl)nc2C(=O)NS(C)(=O)=O)c2nc(N3CCN(c4ccnc(C(F)(F)F)n4)CC3)n(C)c(=O)c2c1` [Compound 589, (R)-6-chloro-3-((1-(3,6-dimethyl-4-oxo-2-(4-(2-(trifluoromethyl)pyrimidin-4-yl)piperazin-1-yl)-3,4-dihydroquinazolin-8-yl)ethyl)amino)-N-(methylsulfonyl) picolinamide], for which the pIC50 is at most 5.30 in experiment [1] and 6.30 to 6.60 in experiment [2].
For `Cc1cc([C@@H](C)Nc2ccc(Cl)nc2C(=O)NS(C)(=O)=O)c2nc(N3CCN(c4ccnc(C5CC5)n4)CC3)n(C)c(=O)c2c1` [Compound 590, (R)-6-chloro-3-((1-(2-(4-(2-cyclopropylpyrimidin-4-yl)piperazin-1-yl)-3,6-dimethyl-4-oxo-3,4-dihydroquinazolin-8-yl)ethyl)amino)-N-(methylsulfonyl) picolinamide] the same measures were 5.30 to 6.00 and over 6.60.
Turning to `Cc1cc([C@@H](C)Nc2ccc(Cl)nc2C(=O)NS(C)(=O)=O)c2nc(N3C[C@@H]4C[C@H]3CN4c3cnc(C)cn3)n(C)c(=O)c2c1` [Compound 591, 6-chloro-3-(((R)-1-(3,6-dimethyl-2-((1S,4S)-5-(5-methylpyrazin-2-yl)-2,5diazabicyclo [2.2.1]heptan-2-yl)-4-oxo-3,4-dihydroquinazolin-8-yl)ethyl)amino)-N-(methylsulfonyl) picolinamide], the pIC50 in experiment [1] is at most 5.30; in experiment [2] it was 6.30 to 6.60.
Take `Cc1cc([C@@H](C)Nc2ccc(Cl)nc2C(=O)NS(C)(=O)=O)c2nc(N3C[C@H]4C[C@@H]3CN4c3cnc(C)nc3)n(C)c(=O)c2c1` [Compound 592, 6-chloro-3-(((R)-1-(3,6-dimethyl-2-((1R,4R)-5-(2-methylpyrimidin-5-yl)-2,5-diazabicyclo [2.2.1]heptan-2-yl)-4-oxo-3,4-dihydroquinazolin-8-yl)ethyl)amino)-N-(methylsulfonyl) picolinamide]: the pIC50 in experiment [1] was at most 5.30; in experiment [2], 6.00 to 6.30.
Taken in the same sequence, the figures for `Cc1cc([C@@H](C)Nc2ccc(Cl)nc2C(=O)NS(C)(=O)=O)c2nc(N3C[C@@H]4[C@H](C3)[C@H]4c3n[nH]cc3Cl)n(C)c(=O)c2c1` [Compound 593, 6-chloro-3-(((R)-1-(2-((1R,5S,6R)-6-(4-chloro-1H-pyrazol-3-yl)-3-azabicyclo[3.1.0]hexan-3-yl)-3,6-dimethyl-4-oxo-3,4-dihydroquinazolin-8-yl)ethyl)amino)-N-(methylsulfonyl) picolinamide] were at most 5.30 and 6.30 to 6.60.
Turning to `Cc1cc([C@@H](C)Nc2ccc(Cl)nc2C(=O)NS(C)(=O)=O)c2nc(N3C[C@@H]4[C@H](C3)[C@H]4c3n[nH]c(C)c3F)n(C)c(=O)c2c1` [Compound 594, 6-chloro-3-(((R)-1-(2-((1R,5S,6R)-6-(4-fluoro-5-methyl-1H-pyrazol-3-yl)-3-azabicyclo[3.1.0]hexan-3-yl)-3,6-dimethyl-4-oxo-3,4-dihydroquinazolin-8-yl)ethyl)amino)-N-(methylsulfonyl) picolinamide], the pIC50 in experiment [1] is 5.30 to 6.00; in experiment [2], over 6.60.
Consider `Cc1cc([C@@H](C)Nc2ccc(Cl)nc2C(=O)NS(C)(=O)=O)c2nc(N3CCC(c4nc(C)no4)CC3)n(C)c(=O)c2c1` [Compound 595, (R)-6-chloro-3-((1-(3,6-dimethyl-2-(4-(3-methyl-1,2,4-oxadiazol-5-yl)piperidin-1-yl)-4-oxo-3,4-dihydroquinazolin-8-yl)ethyl)amino)-N-(methylsulfonyl) picolinamide], for which the pIC50 in experiment [1] is 5.30 to 6.00; in experiment [2], over 6.60.
Regarding `COc1cccc(N2CCN(c3nc4c([C@@H](C)Nc5ccc(Cl)nc5C(=O)NS(C)(=O)=O)cc(C)cc4c(=O)n3C)CC2)n1` [Compound 596, (R)-6-chloro-3-((1-(2-(4-(6-methoxypyridin-2-yl)piperazin-1-yl)-3,6-dimethyl-4-oxo-3,4-dihydroquinazolin-8-yl)ethyl)amino)-N-(methylsulfonyl) picolinamide], the results for the pIC50 in experiment [1] and in experiment [2] were at most 5.30 and 6.30 to 6.60, respectively.
For `Cc1cc([C@@H](C)Nc2ccc(Cl)nc2C(=O)NS(C)(=O)=O)c2nc(N3C[C@H]4C[C@@H]3CN4c3ccc(N)cn3)n(C)c(=O)c2c1` [Compound 597, 3-(((R)-1-(2-((1R,4R)-5-(5-aminopyridin-2-yl)-2,5-diazabicyclo [2.2.1]heptan-2-yl)-3,6-dimethyl-4-oxo-3,4-dihydroquinazolin-8-yl)ethyl)amino)-6-chloro-N-(methylsulfonyl) picolinamide] the same measures were at most 5.30 and 5.30 to 6.00.
Take `Cc1cc([C@@H](C)Nc2ccc(Cl)nc2C(=O)NS(C)(=O)=O)c2nc(N3C[C@@H]4[C@H](C3)[C@H]4c3nnc(C)s3)n(C)c(=O)c2c1` [Compound 598, 6-chloro-3-(((R)-1-(3,6-dimethyl-2-((1R,5S,6R)-6-(5-methyl-1,3,4-thiadiazol-2-yl)-3-azabicyclo[3.1.0]hexan-3-yl)-4-oxo-3,4-dihydroquinazolin-8-yl)ethyl)amino)-N-(methylsulfonyl) picolinamide]: the pIC50 was 5.30 to 6.00 in experiment [1] and over 6.60 in experiment [2].
Take `Cc1cc([C@@H](C)Nc2ccc(Cl)nc2C(=O)NS(C)(=O)=O)c2nc(N3C[C@H]4C[C@@H]3CN4c3ccc(C#N)cn3)n(C)c(=O)c2c1` [Compound 601, 6-chloro-3-(((R)-1-(2-((1R,4R)-5-(5-cyanopyridin-2-yl)-2,5-diazabicyclo [2.2.1]heptan-2-yl)-3,6-dimethyl-4-oxo-3,4-dihydroquinazolin-8-yl)ethyl)amino)-N-(methylsulfonyl) picolinamide]: the pIC50 in experiment [1] is 5.30 to 6.00; in experiment [2], 6.30 to 6.60.
With `Cc1cc([C@@H](C)Nc2ccc(Cl)nc2C(=O)NS(C)(=O)=O)c2nc(N3C[C@H]4C[C@@H]3CN4c3ccc(F)cn3)n(C)c(=O)c2c1` [Compound 602, 6-chloro-3-(((R)-1-(2-((1R,4R)-5-(5-fluoropyridin-2-yl)-2,5-diazabicyclo [2.2.1]heptan-2-yl)-3,6-dimethyl-4-oxo-3,4-dihydroquinazolin-8-yl)ethyl)amino)-N-(methylsulfonyl) picolinamide], the results for the pIC50 in experiment [1] and in experiment [2] were at most 5.30 and 6.30 to 6.60, respectively.
As for `Cc1cc([C@@H](C)Nc2ccc(Cl)nc2C(=O)NS(C)(=O)=O)c2nc(N3C[C@H]4C[C@@H]3CN4c3ccccn3)n(C)c(=O)c2c1` [Compound 603, 6-chloro-3-(((R)-1-(3,6-dimethyl-4-oxo-2-((1R,4R)-5-(pyridin-2-yl)-2,5-diazabicyclo [2.2.1]heptan-2-yl)-3,4-dihydroquinazolin-8-yl)ethyl)amino)-N-(methylsulfonyl) picolinamide], the pIC50 in experiment [1] is at most 5.30; in experiment [2], 6.00 to 6.30.
Regarding `Cc1cc([C@@H](C)Nc2ccc(Cl)nc2C(=O)NS(C)(=O)=O)c2nc(N3C[C@@H]4C[C@H]3CN4c3ccccn3)n(C)c(=O)c2c1` [Compound 604, 6-chloro-3-(((R)-1-(3,6-dimethyl-4-oxo-2-((1S,4S)-5-(pyridin-2-yl)-2,5-diazabicyclo [2.2.1]heptan-2-yl)-3,4-dihydroquinazolin-8-yl)ethyl)amino)-N-(methylsulfonyl) picolinamide], the results for the pIC50 in experiment [1] and in experiment [2] were at most 5.30 and 6.30 to 6.60, respectively.

For the origin of these results see patent US12281122B1, “PI3K inhibitors” (Cogent Biosciences, Inc., priority 2023, dated 2025).
